Assay results reported in the supplement of paper PMC11061612.

What was measured:
Assay in all cases: combination Emax (second highest fraction inhibited in the dose matrix, 72 h); higher = more inhibition; extreme values may be limits of the assay
[1] = tested on: SU-DHL-10 (B-Cell Non-Hodgkin's Lymphoma)
Method in brief: (§1)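 Cell lines grown in DMEM/F12 or RPMI with 10% FBS were plated in 1536-well plates and held 24 hours at 37°C, 5% CO2 before 72 hours of exposure to two-drug dose matrices, with DMSO typically at 0.2%. CellTiter-Glo 2.0 luminescence gave viability, which was converted to inhibition. Vehicle wells were set to 0 and blank wells to 1. Combination Emax is the second-highest inhibition in the matrix, and Bliss excess is the observed combination effect minus the expected EA + EB − EA·EB, where EA and EB are the single-agent effects.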

[2] = tested on: MFE-280 (Endometrial Carcinoma)
Method in brief: as §1

[3] = tested on: CAL-62 (Thyroid Gland Carcinoma)
Method in brief: as §1

[4] = tested on: VAL (B-Cell Non-Hodgkin's Lymphoma)
Method in brief: as §1

[5] = tested on: RCM-1 (Colorectal Carcinoma)
Method in brief: as §1

[6] = tested on: PANC-03-27 (Pancreatic Carcinoma)
Method in brief: as §1

[7] = tested on: PC-3_[JPC-3] (Lung Adenocarcinoma)
Method in brief: as §1

[8] = tested on: KE-37 (T-Lymphoblastic Leukemia)
Method in brief: as §1

[9] = tested on: FADU (Head and Neck Carcinoma)
Method in brief: as §1

[10] = tested on: REH (B-Lymphoblastic Leukemia)
Method in brief: as §1

[11] = tested on: TE-8 (Esophageal Squamous Cell Carcinoma)
Method in brief: as §1

[12] = tested on: SF539 (Glioblastoma)
Method in brief: as §1

[13] = tested on: OAW-42 (Ovarian Carcinoma)
Method in brief: as §1

[14] = tested on: L-1236 (Hodgkin's Lymphoma)
Method in brief: as §1

[15] = tested on: SF268 (Low Grade Glioma)
Method in brief: as §1

[16] = tested on: LN-229 (Glioblastoma)
Method in brief: as §1

[17] = tested on: HEC-1 (Endometrial Carcinoma)
Method in brief: as §1

[18] = tested on: NCI-H446 (Small Cell Lung Carcinoma)
Method in brief: as §1

[19] = tested on: NCI-H2342 (Lung Adenocarcinoma)
Method in brief: as §1

[20] = tested on: OPM-2 (Plasma Cell Myeloma)
Method in brief: as §1

| SMILES | combination Emax [1] | combination Emax [2] | combination Emax [3] | combination Emax [4] | combination Emax [5] | combination Emax [6] | combination Emax [7] | combination Emax [8] | combination Emax [9] | combination Emax [10] | combination Emax [11] | combination Emax [12] | combination Emax [13] | combination Emax [14] | combination Emax [15] | combination Emax [16] | combination Emax [17] | combination Emax [18] | combination Emax [19] | combination Emax [20] |
| --- | --- | --- | --- | --- | --- | --- | --- | --- | --- | --- | --- | --- | --- | --- | --- | --- | --- | --- | --- | --- |
| Cc1c2c(nn1C)CSCc1cc(n(C)n1)CSc1cc(c3ccccc3c1)OCCCc1c(C(=O)O)n(C)c3c-2c(Cl)ccc13 [AZD5991] + CC1(C)CCC(CN2CCN(c3ccc(C(=O)NS(=O)(=O)c4ccc(NCC5CCOCC5)c([N+](=O)[O-])c4)c(Oc4cnc5[nH]ccc5c4)c3)CC2)=C(c2ccc(Cl)cc2)C1 [Venetoclax] (first compound max 1 µM, 7x7, partner max 1 µM) | 1 | 0.193 | 0.148 | 1 | 0.171 | 0.188 | 0.254 | 0.987 | 0.946 | 1 | 0.403 | 0.544 | 0.37 | 0.764 | 0.248 | 0.503 | 0.173 | 0.86 | 0.262 | 1 |
| Cc1c2c(nn1C)CSCc1cc(n(C)n1)CSc1cc(c3ccccc3c1)OCCCc1c(C(=O)O)n(C)c3c-2c(Cl)ccc13 [AZD5991] + CCN(CCO)CCCOc1ccc2c(Nc3cc(CC(=O)Nc4cccc(F)c4)[nH]n3)ncnc2c1 [AZD2811] (first compound max 1 µM, 7x7, partner max 1 µM) | 1 | 0.482 | 0.237 | 0.909 | 0.347 | 0.517 | 0.274 | 1 | 0.986 | 0.931 | 0.529 | 0.553 | 0.288 | 0.491 | 0.472 | 0.522 | 0.217 | 0.926 | 0.427 | 1 |
| Cc1c2c(nn1C)CSCc1cc(n(C)n1)CSc1cc(c3ccccc3c1)OCCCc1c(C(=O)O)n(C)c3c-2c(Cl)ccc13 [AZD5991] + CN(C)CCCOc1ccc(-c2ccc3ncc4c(c3c2)n(C2CCOCC2)c(=O)n4C)cn1 [AZD0156] (first compound max 1 µM, 7x7, partner max 1 µM) | 1 | 0.38 | 0.218 | 0.657 | 0.232 | 0.254 | 0.279 | 0.939 | 0.972 | 0.694 | 0.379 | 0.302 | 0.556 | 0.331 | 0.3 | 0.483 | 0.195 | 0.67 | 0.278 | 1 |
| Cc1c2c(nn1C)CSCc1cc(n(C)n1)CSc1cc(c3ccccc3c1)OCCCc1c(C(=O)O)n(C)c3c-2c(Cl)ccc13 [AZD5991] + C[C@@H]1COCCN1C2=NC(=NC(=C2)C3(CC3)[S@](=N)(=O)C)C4=C5C=CNC5=NC=C4 [AZD6738] (first compound max 1 µM, 7x7, partner max 10 µM) | 1 | 0.384 | 0.806 | 0.933 | 0.801 | 0.819 | 0.37 | 1 | 0.985 | 0.945 | 0.751 | 0.919 | 0.644 | 0.74 | 0.692 | 0.777 | 0.404 | 0.948 | 0.333 | 1 |
| Cc1c2c(nn1C)CSCc1cc(n(C)n1)CSc1cc(c3ccccc3c1)OCCCc1c(C(=O)O)n(C)c3c-2c(Cl)ccc13 [AZD5991] + C[C@@H](Nc1cc(F)cc(F)c1)c1cc(C(=O)N(C)C)cc2c(=O)cc(N3CCOCC3)oc12 [AZD8186] (first compound max 1 µM, 7x7, partner max 3 µM) | 1 | 0.465 | 0.206 | 0.744 | 0.285 | 0.354 | 0.348 | 0.919 | 0.968 | 0.776 | 0.373 | 0.438 | 0.277 | 0.291 | 0.3 | 0.546 | 0.14 | 0.882 | 0.294 | 1 |
| Cc1c2c(nn1C)CSCc1cc(n(C)n1)CSc1cc(c3ccccc3c1)OCCCc1c(C(=O)O)n(C)c3c-2c(Cl)ccc13 [AZD5991] + Cc1cc2ncnn2cc1Nc1ncc2c(n1)n(C1CCOCC1)c(=O)n2C [AZD7648] (first compound max 1 µM, 7x7, partner max 10 µM) | 1 | 0.437 | 0.439 | 0.744 | 0.241 | 0.261 | 0.289 | 0.975 | 0.963 | 0.8 | 0.427 | 0.41 | 0.502 | 0.426 | 0.243 | 0.389 | 0.18 | 0.648 | 0.317 | 1 |
| Cc1c2c(nn1C)CSCc1cc(n(C)n1)CSc1cc(c3ccccc3c1)OCCCc1c(C(=O)O)n(C)c3c-2c(Cl)ccc13 [AZD5991] + Cn1cnc2c(F)c(Nc3ccc(Br)cc3Cl)c(C(=O)NOCCO)cc21 [Selumetinib] (first compound max 1 µM, 7x7, partner max 3 µM) | 1 | 0.278 | 0.354 | 0.724 | 0.651 | 0.597 | 0.269 | 0.947 | 1 | 0.732 | 0.415 | 0.427 | 0.263 | 0.297 | 0.269 | 0.428 | 0.143 | 0.563 | 0.341 | 1 |
| NC1(C(=O)N[C@@H](CCO)c2ccc(Cl)cc2)CCN(c2ncnc3[nH]ccc23)CC1 [Capivasertib] + CC(=O)c1c(C)c2cnc(Nc3ccc(N4CCNCC4)cn3)nc2n(C2CCCC2)c1=O [Palbociclib] (first compound max 10 µM, 7x7, partner max 10 µM) | 1 | 0.555 | 0.422 | 0.626 | 0.383 | 0.283 | 0.398 | 0.76 | 0.527 | 0.609 | 0.48 | 0.578 | 0.548 | 0.861 | 0.452 | 0.376 | 0.33 | 0.719 | 0.327 | 0.987 |
| NC1(C(=O)N[C@@H](CCO)c2ccc(Cl)cc2)CCN(c2ncnc3[nH]ccc23)CC1 [Capivasertib] + CC(C)n1c(=O)n(C)c2cnc3cc(F)c(-c4ccc(OCCCN5CCCCC5)nc4)cc3c21 [AZD1390] (first compound max 10 µM, 7x7, partner max 0.3 µM) | 1 | 0.583 | 0.178 | 0.609 | 0.253 | 0.241 | 0.176 | 0.72 | 0.221 | 0.461 | 0.502 | 0.617 | 0.439 | 0.759 | 0.272 | 0.104 | 0.145 | 0.643 | 0.284 | 0.931 |
| NC1(C(=O)N[C@@H](CCO)c2ccc(Cl)cc2)CCN(c2ncnc3[nH]ccc23)CC1 [Capivasertib] + CCN(CCO)CCCOc1ccc2c(Nc3cc(CC(=O)Nc4cccc(F)c4)[nH]n3)ncnc2c1 [AZD2811] (first compound max 10 µM, 7x7, partner max 1 µM) | 1 | 0.661 | 0.308 | 0.761 | 0.197 | 0.318 | 0.344 | 1 | 0.36 | 0.848 | 0.6 | 0.723 | 0.48 | 0.792 | 0.416 | 0.211 | 0.212 | 0.958 | 0.482 | 0.981 |
| NC1(C(=O)N[C@@H](CCO)c2ccc(Cl)cc2)CCN(c2ncnc3[nH]ccc23)CC1 [Capivasertib] + COc1nnc2ccc(N3CCC(c4ccc(OCCN5CCN(C)C(=O)[C@H]5C)cc4)CC3)nn12 [AZD5153] (first compound max 10 µM, 7x7, partner max 1 µM) | 1 | 0.608 | 0.751 | 0.806 | 0.613 | 0.307 | 0.349 | 0.905 | 0.65 | 0.987 | 0.582 | 0.707 | 0.619 | 1 | 0.488 | 0.344 | 0.688 | 0.97 | 0.46 | 1 |
| NC1(C(=O)N[C@@H](CCO)c2ccc(Cl)cc2)CCN(c2ncnc3[nH]ccc23)CC1 [Capivasertib] + C[C@@H]1COCCN1C2=NC(=NC(=C2)C3(CC3)[S@](=N)(=O)C)C4=C5C=CNC5=NC=C4 [AZD6738] (first compound max 10 µM, 7x7, partner max 10 µM) | 1 | 0.636 | 0.784 | 0.831 | 0.665 | 0.521 | 0.441 | 0.992 | 0.594 | 0.933 | 0.706 | 0.879 | 0.644 | 0.818 | 0.644 | 0.597 | 0.347 | 0.904 | 0.585 | 1 |
